The target in one data set is T1, human URAT1 (Homo sapiens, UniProt Q96S37).
T1 sequence (Q96S37 1-553): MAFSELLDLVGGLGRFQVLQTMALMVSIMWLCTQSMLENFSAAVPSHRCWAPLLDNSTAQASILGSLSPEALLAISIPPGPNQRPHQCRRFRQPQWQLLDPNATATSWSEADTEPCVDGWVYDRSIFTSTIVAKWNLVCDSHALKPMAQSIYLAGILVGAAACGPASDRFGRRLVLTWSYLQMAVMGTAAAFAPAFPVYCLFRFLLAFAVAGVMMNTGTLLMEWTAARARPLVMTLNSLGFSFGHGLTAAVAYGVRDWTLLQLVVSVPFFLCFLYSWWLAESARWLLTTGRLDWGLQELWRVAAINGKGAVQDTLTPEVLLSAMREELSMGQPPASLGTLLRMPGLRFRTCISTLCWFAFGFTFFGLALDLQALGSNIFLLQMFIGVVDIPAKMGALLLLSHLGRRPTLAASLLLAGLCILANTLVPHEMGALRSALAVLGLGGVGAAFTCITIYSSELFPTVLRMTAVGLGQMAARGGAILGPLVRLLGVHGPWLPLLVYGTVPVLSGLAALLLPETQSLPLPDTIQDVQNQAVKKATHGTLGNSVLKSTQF
The note with it: for URAT1 inhibitory activity (in words): human URAT1, HEK293-URAT1 cells.

Where [1] appears, read: ratio of IC50 values against human URAT1.

Bounds are passed on as bounds.

Description for human URAT1: After incubation for 48 h, when the HEK293-URAT1 cells and mock cells were grown to confluence, the cells were treated with 0.25% trypsin for 1–2 min. Thereafter, the digested cells were diluted to a density of 1.5 × 10^5/mL and seeded onto the 24-well cell culture plates at 1 mL/well for about 48 h. […] The HEK293-URAT1 cells were then washed rapidly three times with ice-cold HBSS (Cl^− free) and lysed with 0.1 M aqueous NaOH solution. After that, 500-μL aliquots of cell lysates were transferred to scintillation vials and mixed with scintillation solution. The radioactivity in the cells was measured by a liquid scintillation counter (PerkinElmer, Waltham, MA, USA).

In general, IC50 refers to the concentration that inhibits the measured activity by half. Higher therefore signals a need for much substance. One may read the melting point as the temperature, or range, at which the solid turns liquid. For the molecule `N#Cc1ccc(Cn2c(Br)cnc2SC2(C(=O)[O-])CCC2)c2ccccc12.[Na+]` [1s, Sodium 1-((5-bromo-1-((4-cyano-1-naphthyl)methyl)-1H-imidazol-2-yl)thio)cyclobutanecarboxylate], the melting point was 285 °C (dec.). For the same molecule, at human URAT1, the IC50 was determined as 0.48 ± 0.11 µM.

Take `O=C([O-])CSc1nnc(Br)n1CC12CC3CC(CC(C3)C1)C2.[Na+]` [1d, Sodium 2-((4-(1-adamantylmethyl)-5-bromo-4H-1,2,4-triazol-3-yl)thio)acetate]: the melting point is 194 °C (dec.). The molecule further returned an IC50 against human URAT1 of 5.11 ± 0.79 µM.

For `O=C([O-])CSc1nnc(Br)n1Cc1ccc(-c2ccccc2)s1.[Na+]` [1hg, Sodium 2-((5-bromo-4-((5-phenyl-2-thiophenyl)methyl)-4H-1,2,4-triazol-3-yl)thio)acetate], the melting point was 212 °C (dec.). This molecule also registered an IC50 on human URAT1 of 31.7 ± 9.34 µM.

`O=C([O-])CSc1nnc(Br)n1Cc1ccc2ccccc2c1.[Na+]` [1m, Sodium 2-((5-bromo-4-(2-naphthylmethyl)-4H-1,2,4-triazol-3-yl)thio)acetate]: the melting point is 118 °C (dec.). Besides, the IC50 against human URAT1 turned out to be 4.66 ± 1.04 µM.

With `Cc1ccc(Cn2c(Br)nnc2SCC(=O)[O-])s1.[Na+]` [1hb, Sodium 2-((5-bromo-4-((5-methyl-2-thiophenyl)methyl)-4H-1,2,4-triazol-3-yl)thio)acetate], the melting point was 157 °C (dec.). For the same molecule, the IC50 against human URAT1 is over 50 µM.

In the case of `O=C([O-])CSc1nnc(Br)n1C(c1ccccc1)c1ccccc1.[Na+]` [1j, Sodium 2-((5-bromo-4-(diphenylmethyl)-4H-1,2,4-triazol-3-yl)thio)acetate], the melting point is 195 °C (dec.). Also, the IC50 at human URAT1 is 1.15 ± 0.25 µM.

Take `CC(C)(Sc1ncc(Br)n1Cc1ccc(C#N)c2ccccc12)C(=O)[O-].[Na+]` [1r, Sodium 2-((5-bromo-1-((4-cyano-1-naphthyl)methyl)-1H-imidazol-2-yl)thio)-2-methylpropionate]: the melting point was 243 °C (dec.). Besides, half-maximal inhibition against human URAT1 (IC50) required 0.21 ± 0.07 µM.

In turn, `CC(C)(Sc1ccncc1Cc1ccc(C#N)c2ccccc12)C(=O)O` [1u, Sodium 2-((3-((4-cyano-1-naphthyl)methyl)pyridin-4-yl)thio)-2-methylpropionate] gave an IC50 against human URAT1 of 1.39 ± 0.42 µM.

`O=C([O-])CSc1nnc(Br)n1Cc1ccco1.[Na+]` [1g, Sodium 2-((5-bromo-4-(2-furanylmethyl)-4H-1,2,4-triazol-3-yl)thio)acetate] gave a melting point of 108 to 111 °C. This molecule also showed a concentration for half-maximal inhibition (IC50) against human URAT1 of 4.54 ± 0.69 µM.

On to `O=C([O-])CSc1nnc(Br)n1Cc1ccc(Cl)s1.[Na+]` [1ha, Sodium 2-((5-bromo-4-((5-chloro-2-thiophenyl)methyl)-4H-1,2,4-triazol-3-yl)thio)acetate], for which the melting point was 97 °C (dec.). The molecule further gave an IC50 against human URAT1 of 11.2 ± 2.36 µM.

Turning to `O=C([O-])CSc1nnc(Br)n1Cc1sc2ccccc2c1Br.[Na+]` [1hh, Sodium 2-((5-bromo-4-((3-bromobenzo[b]thiophen-2-yl)methyl)-4H-1,2,4-triazol-3-yl)thio)acetate], the melting point was 99 °C (dec.). It took 0.12 ± 0.03 µM to reach half-maximal inhibition on human URAT1 (IC50).

Turning to `O=C([O-])CSc1nnc(Br)n1Cc1ccc2occc2c1.[Na+]` [1k, Sodium 2-((4-(benzo[b]furan-5-methyl)-5-bromo-4H-1,2,4-triazol-3-yl)thio)acetate], the melting point was 92 °C (dec.). For the same molecule, the IC50 at human URAT1 is 2.61 ± 0.4 µM.

In the case of `O=C([O-])CSc1nnc(Br)n1Cc1ccccc1.[Na+]` [1e, Sodium 2-((4-benzyl-5-bromo-4H-1,2,4-triazol-3-yl)thio)acetate], the melting point lay in the range of 119 to 121 °C. The half-inhibitory concentration (IC50) against human URAT1 amounted to 2.98 ± 0.6 µM.

Turning to `N#Cc1ccc(Cn2c(Br)cnc2SCC(=O)[O-])c2ccccc12.[Na+]` [1q, Sodium 2-((5-bromo-1-((4-cyano-1-naphthyl)methyl)-1H-imidazol-2-yl)thio)acetate], the melting point was 161 °C (dec.). Moreover, the IC50 at human URAT1 was 5.55 ± 0.98 µM.

In turn, `O=C([O-])CSc1nnc(Br)n1Cc1cccs1.[Na+]` [1h, Sodium 2-((5-bromo-4-(2-thiophenylmethyl)-4H-1,2,4-triazol-3-yl)thio)acetate] returned a 50% inhibitory concentration (IC50) on human URAT1 of 0.035 ± 0.01 µM. Moreover, on human URAT1 (setting [1]), the “fold more potent than benzbromarone” value is on record as 8 fold and the “fold more potent than parent lesinurad” value is 200 fold.

`Cc1ccsc1Cn1c(Br)nnc1SCC(=O)[O-].[Na+]` [1hd, Sodium 2-((5-bromo-4-((3-methyl-2-thiophenyl)methyl)-4H-1,2,4-triazol-3-yl)thio)acetate]: the melting point was 158 °C (dec.). In addition, the IC50 at human URAT1 was found to be 3.04 ± 0.84 µM.

Molecule `CCc1ccc(Cn2c(Br)nnc2SCC(=O)[O-])s1.[Na+]` [1hc, Sodium 2-((5-bromo-4-((5-ethyl-2-thiophenyl)methyl)-4H-1,2,4-triazol-3-yl)thio)acetate] yielded a melting point of 178 to 180 °C. At human URAT1, the IC50 turned out to be 7.98 ± 2.14 µM.

On to `CC(C)(Sc1ncc(Br)n1Cc1cccs1)C(=O)[O-].[Na+]` [1w, Sodium 2-((5-bromo-1-((2-thiophenyl)methyl)-1H-imidazol-2-yl)thio)-2-methylpropionate], for which the melting point was 75 °C (dec.). Moreover, at human URAT1, the IC50 was found to be 17.4 ± 3.98 µM and the “URAT1 inhibitory activity (in words)” value is “weak”.

`O=C([O-])CSc1nnc(Br)n1Cc1ccc(-c2ccccc2)cc1.[Na+]` [1i, Sodium 2-((4-(biphenyl-4-methyl)-5-bromo-4H-1,2,4-triazol-3-yl)thio)acetate] came in with a melting point of 199 to 201 °C. At human URAT1, this molecule had an IC50 of 1.16 ± 0.34 µM.

Regarding `N#Cc1ccc(Cc2cnccc2SCC(=O)[O-])c2ccccc12.[Na+]` [1t, Sodium 2-((3-((4-cyano-1-naphthyl)methyl)pyridin-4-yl)thio)acetate], the melting point is 268 °C (dec.). The molecule further came in with an IC50 against human URAT1 of 8.83 ± 1.02 µM.

As for `Cc1cc(Cn2c(Br)nnc2SCC(=O)[O-])sc1Br.[Na+]` [1he, Sodium 2-((5-bromo-4-((5-bromo-4-methyl-2-thiophenyl)methyl)-4H-1,2,4-triazol-3-yl)thio)acetate], the melting point is 87 °C (dec.). It took 6.1 ± 1.17 µM to reach half-maximal inhibition at human URAT1 (IC50).

As for `O=C([O-])CSc1nnc(Br)n1Cc1cccc2c1sc1ccccc12.[Na+]` [1hi, Sodium 2-((5-bromo-4-((dibenzo[b,d]thiophen-4-yl)methyl)-4H-1,2,4-triazol-3-yl)thio)acetate], the melting point is 74 °C (dec.). In addition, it took 18.5 ± 5.41 µM to reach half-maximal inhibition at human URAT1 (IC50).

In the case of `CC(C)(Sc1nnc(Br)n1Cc1ccc(C#N)c2ccccc12)C(=O)O` [1o], at human URAT1, the midpoint of inhibition, the IC50, lay at 1.96 ± 0.34 µM.

For `O=C([O-])CSc1nnc(Br)n1Cc1ccc2ncccc2c1.[Na+]` [1n, Sodium 2-((5-bromo-4-(quinoline-6-methyl)-4H-1,2,4-triazol-3-yl)thio)acetate], the melting point was 122 °C (dec.). The IC50 at human URAT1 is 1.36 ± 0.24 µM.

Molecule `CCCn1c(Br)nnc1SCC(=O)O` [1b, Sodium 2-((5-bromo-4-n-propyl-4H-1,2,4-triazol-3-yl)thio)acetate] showed an IC50 on human URAT1 of 4.83 ± 1.02 µM.

Consider `N#Cc1ccc(Cn2c(Br)nnc2SCC(=O)O)c2ccccc12` [1l, Sodium 2-((5-bromo-4-((4-cyano-1-naphthyl)methyl)-4H-1,2,4-triazol-3-yl)thio)acetate], for which inhibition on human URAT1 was half-maximal at 3.8 ± 0.78 µM (IC50).

In the case of `N#Cc1ccc(Cc2cnccc2SC2(C(=O)[O-])CCC2)c2ccccc12.[Na+]` [1v, Sodium 1-((3-((4-cyano-1-naphthyl)methyl)pyridin-4-yl)thio)cyclobutanecarboxylate], the melting point is 296 °C (dec.). For the same molecule, half-maximal inhibition at human URAT1 (IC50) was put at 1.15 ± 0.2 µM.

On to `O=C([O-])CSc1nnc(Br)n1CC1CCCCC1.[Na+]` [1c, Sodium 2-((5-bromo-4-(cyclohexylmethyl)-4H-1,2,4-triazol-3-yl)thio)acetate], for which the melting point is 135 °C (dec.). At human URAT1, this molecule registered an IC50 of 4.6 ± 0.88 µM.

`O=C([O-])C1(Sc2ncc(Br)n2Cc2cccs2)CCC1.[Na+]` [1x, Sodium 1-((5-bromo-1-((2-thiophenyl)methyl)-1H-imidazol-2-yl)thio)cyclobutanecarboxylate]: the melting point is 210 °C (dec.). Also, on human URAT1, the IC50 was 0.32 ± 0.07 µM and the “URAT1 inhibitory activity (in words)” value was “highly potent”.

For `N#Cc1ccc(Cn2c(Br)nnc2SC2(C(=O)[O-])CCC2)c2ccccc12.[Na+]` [1p, Sodium 1-((5-bromo-4-((4-cyano-1-naphthyl)methyl)-4H-1,2,4-triazol-3-yl)thio)cyclobutanecarboxylate], the melting point is 136 °C (dec.). On human URAT1, 0.59 ± 0.17 µM corresponded to half-maximal inhibition (IC50).

In the case of `O=C([O-])CSc1nnc(Br)n1Cc1cccnc1.[Na+]` [1f, Sodium 2-((5-bromo-4-(3-pyridinylmethyl)-4H-1,2,4-triazol-3-yl)thio)acetate], the melting point is 109 to 111 °C. This molecule also had a concentration for half-maximal inhibition (IC50) at human URAT1 of 14.2 ± 4.71 µM.

As to `CCn1c(Br)nnc1SCC(=O)O` [1a, Sodium 2-((5-bromo-4-ethyl-4H-1,2,4-triazol-3-yl)thio)acetate], 18.4 ± 3.36 µM corresponded to half-maximal inhibition against human URAT1 (IC50).

`O=C([O-])CSc1nnc(Br)n1Cc1ccsc1.[Na+]` [1hf, Sodium 2-((5-bromo-4-((3-thiophenyl)methyl)-4H-1,2,4-triazol-3-yl)thio)acetate] had a melting point of 124 to 126 °C. In addition, on human URAT1, the IC50 was over 50 µM and the “URAT1 inhibitory activity (in words)” value was “complete loss of URAT1 inhibitory activity”.
